Measured values: article PMC8151276, “An Integrated Approach toward NanoBRET Tracers for Analysis of GPCR Ligand Engagement” (Molecules, 2021)

How the values were obtained:
Assay type in all cases: binding
GRM3 = biological target: T1, GRM3 (Homo sapiens, UniProt Q14832); test: NanoBRET screen HiBiT-GRM3 in HEK293
T1 construct: purchased Promega (in-house HiBiT-GPCR construct library, NanoBRET)
Protocol: (§1) Each tracer candidate was screened across the entire library of HiBiT-GPCR constructs using NanoBRET as the detection modality. As depicted in Figure 4A, the specificity of interactions was evaluated through decrease in BRET due to competitive displacement of a bound tracer by excess parental compound. Each tracer was analyzed for binding to each HiBiT-GPCR fusion in the absence and in the presence of competing parental compound. Briefly, HEK293 cells were transfected with HiBiT-GPCR constructs diluted into promoterless DNA to reduce expression and maximize translocation to the cell surface. Each tracer candidate was then screened at concentrations of 1 μM and 0.1 μM across cells expressing these fusions. Cells were treated for 1.5 h with tracer either alone or in the presence of 20 μM competing parental compound (i.e., control). BRET was measured upon addition of purified LgBiT and subsequent complementation with HiBiT genetically fused to a GPCR. The specificity of interactions was assessed through a decrease in BRET signal due to competitive displacement of the bound tracer. To further gauge the robustness of these interactions, the fold response over the control (i.e., BRETtracer/BRETcontrol) was calculated. We chose a 1.5-fold response, which translates to ≥7-fold signal over noise as the minimal threshold required to score an interaction as positive. […]. Below we highlight the screening results obtained for our exemplary fluorescent tracers based on Clozapine, Amitriptyline and AZD1283.
(§2) HiBiT-GPCR DNA constructs were diluted in 10 mM Tris pH 8 to a final concentration of 0.01 μg/μL, arrayed in 96-well plates and stored at −20 °C. For transfection, HEK293 cells were suspended in Opti-MEM (without phenol red) supplemented with 2% fetal bovine serum (Seradigm) and 100 units/mL penicillin–streptomycin (Gibco) at a final concentration of 220,000 cells/mL and dispensed into white 96-well plates at 90 μL/well. Subsequent transfections and screens were carried using an Agilent Bravo Automated Liquid Handling Platform. First, the 96-well HiBiT DNA arrays were diluted 25-fold in Opti-MEM (without serum or phenol red) to a final concentration of 0.0004 μg/μL and 20 μL of the diluted DNAs were transferred into new 96-well plates. Next, promoterless carrier DNA (1 μg/μL) was diluted 25-fold (0.04 μg/μL) and then dispensed into the diluted arrays at 20 μL/well. Following brief mixing, Viafect transfection reagent (Promega) diluted 16-fold into Opti-MEM was dispensed into the plates at 40 μL/well. After mixing by pipetting, plates were incubated for 10 min on the pipetting station deck. The DNA-transfection reagent complexes were then added to plates containing cells. To facilitate the screen, 10 μL of DNA-transfection reagent complexes were added in duplicates to the top 4 and bottom 4 rows, resulting in two identical 48-well arrays per plate. Plates with transfected cells were incubated for 18–20 h at 37 °C/5% CO2. A screen of each tracer across the entire library using two different concentrations requires duplicate plates of transfected cells. Depending on the number of tracers being screened, transfections can be scaled up using the same ratios. The next day, for each tracer, four 20× screening solutions in tracer dilution buffer (Promega) were prepared: two duplicates at final concentration of 20 μM and two duplicates at a final concentration of 2 μM. A competing unmodified compound was added to one of each duplicate at a final concentration of 400 μM. The four resulting solutions were diluted 4-fold in Opti-MEM without serum or phenol red to generate 5× solutions (5 µM and 0.5 µM tracer +/− 100 μM competing compound). To screen the library, a BioTek MultiFlo FX liquid dispenser was used to dispense 22.5 µL of tracer solution to the top 4 rows and 22.5 µL tracer + competing compound solution to the 4 bottom rows. Plates were briefly mixed on an orbital shaker and incubated for 1.5 h at room temperature. […]

VIPR2 = biological target: T2, VIPR2 (Homo sapiens, UniProt P41587); test: NanoBRET screen HiBiT-VIPR2 in HEK293
T2 construct: purchased Promega (in-house HiBiT-GPCR construct library, NanoBRET)
T2 sequence (P41587 24-438): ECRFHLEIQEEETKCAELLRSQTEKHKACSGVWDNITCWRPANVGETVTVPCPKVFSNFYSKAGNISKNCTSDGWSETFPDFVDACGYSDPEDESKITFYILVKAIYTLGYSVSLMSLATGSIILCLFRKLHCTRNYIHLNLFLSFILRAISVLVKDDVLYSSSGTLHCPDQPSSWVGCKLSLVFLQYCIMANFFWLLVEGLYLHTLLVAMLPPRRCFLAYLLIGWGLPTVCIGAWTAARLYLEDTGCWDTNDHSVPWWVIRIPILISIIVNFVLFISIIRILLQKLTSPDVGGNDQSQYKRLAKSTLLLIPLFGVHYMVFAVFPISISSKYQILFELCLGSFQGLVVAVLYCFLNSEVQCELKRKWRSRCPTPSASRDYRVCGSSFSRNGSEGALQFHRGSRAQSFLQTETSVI
Protocol: as §1, §2

AGTR2 = biological target: T3, AGTR2 (Homo sapiens, UniProt P50052); test: NanoBRET screen HiBiT-AGTR2 in HEK293
T3 construct: purchased Promega (in-house HiBiT-GPCR construct library, NanoBRET)
T3 sequence (P50052 1-363): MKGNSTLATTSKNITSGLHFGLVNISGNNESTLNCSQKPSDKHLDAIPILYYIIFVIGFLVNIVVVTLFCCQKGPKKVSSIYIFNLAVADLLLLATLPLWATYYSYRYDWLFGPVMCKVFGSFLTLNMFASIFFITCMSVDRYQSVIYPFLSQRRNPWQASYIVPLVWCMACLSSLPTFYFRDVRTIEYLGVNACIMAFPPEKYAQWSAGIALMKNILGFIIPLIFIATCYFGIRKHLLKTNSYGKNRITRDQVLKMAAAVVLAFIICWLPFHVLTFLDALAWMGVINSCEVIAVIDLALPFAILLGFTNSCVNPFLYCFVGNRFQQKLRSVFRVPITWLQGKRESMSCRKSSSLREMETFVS
Protocol: as §1, §2

RXFP2 = biological target: T4, RXFP2 (Homo sapiens, UniProt Q8WXD0); test: NanoBRET screen HiBiT-RXFP2 in HEK293
T4 construct: purchased Promega (in-house HiBiT-GPCR construct library, NanoBRET)
Protocol: as §1, §2

PTGER4 = biological target: T5, PTGER4 (Homo sapiens, UniProt P35408); test: NanoBRET screen HiBiT-PTGER4 in HEK293
T5 construct: purchased Promega (in-house HiBiT-GPCR construct library, NanoBRET)
Protocol: as §1, §2

T4 sequence (Q8WXD0 whole entry): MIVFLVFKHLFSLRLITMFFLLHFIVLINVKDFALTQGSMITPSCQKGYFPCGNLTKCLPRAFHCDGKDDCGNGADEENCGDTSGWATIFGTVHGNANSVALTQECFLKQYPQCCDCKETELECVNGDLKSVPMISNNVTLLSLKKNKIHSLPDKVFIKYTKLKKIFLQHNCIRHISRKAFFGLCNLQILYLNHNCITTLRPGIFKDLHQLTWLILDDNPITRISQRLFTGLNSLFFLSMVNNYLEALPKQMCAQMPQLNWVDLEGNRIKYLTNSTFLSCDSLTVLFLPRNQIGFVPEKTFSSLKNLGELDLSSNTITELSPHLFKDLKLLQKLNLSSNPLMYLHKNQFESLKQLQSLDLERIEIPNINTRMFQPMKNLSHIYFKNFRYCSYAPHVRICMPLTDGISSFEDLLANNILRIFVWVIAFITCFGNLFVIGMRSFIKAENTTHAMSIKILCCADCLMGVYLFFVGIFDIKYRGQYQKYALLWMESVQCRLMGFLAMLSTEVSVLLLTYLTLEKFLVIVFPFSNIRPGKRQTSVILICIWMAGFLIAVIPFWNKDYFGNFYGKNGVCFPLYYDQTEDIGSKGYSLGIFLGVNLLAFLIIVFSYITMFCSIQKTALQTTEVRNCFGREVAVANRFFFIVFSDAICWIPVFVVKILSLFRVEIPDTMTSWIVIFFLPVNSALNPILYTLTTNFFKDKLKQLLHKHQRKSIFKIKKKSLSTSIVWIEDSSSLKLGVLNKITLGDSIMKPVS
T5 sequence (P35408 whole entry): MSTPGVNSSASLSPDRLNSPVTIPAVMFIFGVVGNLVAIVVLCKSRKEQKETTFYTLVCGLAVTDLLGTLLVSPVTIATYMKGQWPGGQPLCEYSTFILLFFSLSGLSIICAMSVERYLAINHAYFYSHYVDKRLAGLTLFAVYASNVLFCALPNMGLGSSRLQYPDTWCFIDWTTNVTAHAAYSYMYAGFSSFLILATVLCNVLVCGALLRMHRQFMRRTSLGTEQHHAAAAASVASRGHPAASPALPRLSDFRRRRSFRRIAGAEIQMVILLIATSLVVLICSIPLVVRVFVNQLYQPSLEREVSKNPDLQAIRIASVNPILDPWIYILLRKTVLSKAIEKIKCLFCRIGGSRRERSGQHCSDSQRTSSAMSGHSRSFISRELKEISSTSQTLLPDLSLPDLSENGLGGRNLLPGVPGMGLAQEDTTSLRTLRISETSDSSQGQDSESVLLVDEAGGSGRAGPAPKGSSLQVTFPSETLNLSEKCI
T1 sequence (Q14832 23-879): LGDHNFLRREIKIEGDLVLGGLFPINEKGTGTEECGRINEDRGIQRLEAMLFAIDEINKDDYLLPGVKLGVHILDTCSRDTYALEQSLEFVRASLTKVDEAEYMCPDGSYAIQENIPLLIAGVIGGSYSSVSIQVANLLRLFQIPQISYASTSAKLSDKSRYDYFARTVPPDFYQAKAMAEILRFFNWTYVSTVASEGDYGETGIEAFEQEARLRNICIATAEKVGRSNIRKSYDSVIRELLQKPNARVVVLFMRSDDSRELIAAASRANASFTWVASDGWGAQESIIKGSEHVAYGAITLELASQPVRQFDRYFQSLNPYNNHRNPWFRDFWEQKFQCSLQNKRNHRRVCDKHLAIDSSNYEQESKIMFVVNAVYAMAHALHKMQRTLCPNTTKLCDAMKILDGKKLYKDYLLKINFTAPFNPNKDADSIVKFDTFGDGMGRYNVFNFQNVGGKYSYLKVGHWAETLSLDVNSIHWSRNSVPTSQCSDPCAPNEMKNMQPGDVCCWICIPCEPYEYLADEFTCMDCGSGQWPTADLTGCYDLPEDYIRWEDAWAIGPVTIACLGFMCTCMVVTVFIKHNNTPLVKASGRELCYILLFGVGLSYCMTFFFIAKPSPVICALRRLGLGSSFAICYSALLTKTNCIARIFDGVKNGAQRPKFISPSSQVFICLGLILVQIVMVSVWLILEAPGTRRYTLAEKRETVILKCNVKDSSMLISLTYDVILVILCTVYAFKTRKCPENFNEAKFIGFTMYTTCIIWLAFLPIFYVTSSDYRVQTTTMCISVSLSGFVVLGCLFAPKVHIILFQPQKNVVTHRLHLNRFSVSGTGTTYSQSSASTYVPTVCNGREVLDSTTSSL

Structure (SMILES) | NanoBRET Fold Response (GRM3; GRM3, tracer 0.1μM) | NanoBRET Fold Response (GRM3; GRM3, tracer 1μM) | NanoBRET Fold Response (VIPR2; VIPR2, tracer 0.1μM) | NanoBRET Fold Response (VIPR2; VIPR2, tracer 1μM) | NanoBRET Fold Response (AGTR2; AGTR2, tracer 0.1μM) | NanoBRET Fold Response (AGTR2; AGTR2, tracer 1μM) | NanoBRET Fold Response (RXFP2; RXFP2, tracer 0.1μM) | NanoBRET Fold Response (PTGER4; PTGER4, tracer 0.1μM) | NanoBRET Fold Response (PTGER4; PTGER4, tracer 1μM) | NanoBRET Fold Response (RXFP2; RXFP2, tracer 1μM) | other results
CN1CCN(C2=Nc3cc(Cl)ccc3N(CC(=O)NCCOCCOCCOCCOCCNC(=O)CCc3ccc4n3[B-](F)(F)[N+]3=C(c5ccc[nH]5)C=CC3=C4)c3ccccc32)CC1 [Clozapine-c-2-NB590] | – | – | – | – | – | – | – | – | – | – | NanoBRET Fold Response (GRM3; GRM3, 0.1μM tracer): 0.93; NanoBRET Fold Response (GRM3; GRM3, 1μM tracer): 1.07; NanoBRET Fold Response (VIPR2; VIPR2, 0.1μM tracer): 0.97; NanoBRET Fold Response (VIPR2; VIPR2, 1μM tracer): 0.86; NanoBRET Fold Response (AGTR2; AGTR2, 0.1μM tracer): 0.98; NanoBRET Fold Response (AGTR2; AGTR2, 1μM tracer): 0.98; NanoBRET Fold Response (RXFP2; RXFP2, 0.1μM tracer): 0.62; NanoBRET Fold Response (RXFP2; RXFP2, 1μM tracer): 1.17; NanoBRET Fold Response (PTGER4; PTGER4, 0.1μM tracer): 1.00; NanoBRET Fold Response (PTGER4; PTGER4, 1μM tracer): 1.05
Cc1nc2n(c(=O)c1CCN1CCC(c3noc4cc(F)ccc34)CC1)CCCC2OC(=O)NCCOCCOCCOCCOCCNC(=O)CCc1ccc2n1[B-](F)(F)[N+]1=C(c3ccc[nH]3)C=CC1=C2 (stereo not drawn) [Risperidone-2-NB590] | 1.07 | 1.07 | 1.03 | 0.91 | 1.10 | 0.94 | 1.20 | 1.00 | 1.04 | – | –
COc1ccc2[nH]c(-c3ccc(CNC(=O)CCOCCOCCOCCOCCNC(=O)CCc4ccc5n4[B-](F)(F)[N+]4=C(c6ccc[nH]6)C=CC4=C5)cc3)c(CCNC(C)=O)c2n1 [AzomelatoninICO9-2-NB590] | – | – | – | – | – | – | – | – | – | – | NanoBRET Fold Response (GRM3; 0.1μM tracer): 1.03; NanoBRET Fold Response (GRM3; 1μM tracer): 0.85; NanoBRET Fold Response (VIPR2; 0.1μM tracer): 0.99; NanoBRET Fold Response (VIPR2; 1μM tracer): 1.12; NanoBRET Fold Response (AGTR2; 0.1μM tracer): 0.88; NanoBRET Fold Response (AGTR2; 1μM tracer): 0.95; NanoBRET Fold Response (RXFP2; 0.1μM tracer): 1.23; NanoBRET Fold Response (RXFP2; 1μM tracer): 0.59; NanoBRET Fold Response (PTGER4; 0.1μM tracer): 0.97; NanoBRET Fold Response (PTGER4; 1μM tracer): 0.97
COc1ccccc1N1CCN(CCCCN2C(=O)c3ccc(CNC(=O)CCOCCOCCOCCOCCNC(=O)CCc4ccc5n4[B-](F)(F)[N+]4=C(c6ccc[nH]6)C=CC4=C5)cc3C2=O)CC1 [NAN-190-2-NB590] | 0.95 | – | 1.05 | 1.03 | 1.02 | 0.98 | 0.78 | 1.02 | 1.01 | 1.17 | –
O=C(CCc1ccc2n1[B-](F)(F)[N+]1=C(c3ccc[nH]3)C=CC1=C2)NCCOCCOCCNC(=O)OCCOCCN1CCN(C2=Nc3ccccc3Sc3ccccc32)CC1 [Quetiapine-a-2-NB590] | 1.08 | 1.09 | 0.96 | 0.96 | 1.08 | 1.05 | 1.31 | 1.02 | 1.08 | 1.01 | –
